Tmax median, hygroscopicity and moisture gain data for three molecules are collected here from patent US20120015029A1, “DIRECT COMPRESSION FORMULATION AND PROCESS” (priority 2005, published 2012).

A short description of data set [1]: Pharmacokinetic drug-drug interaction study vildagliptin 100 mg qd and metformin 1000 mg qd in patients with type 2 diabetes. The data set is classed as in vivo, human. Particulars: type 2 diabetes patients, steady state, vildagliptin 100 mg qd FMI tablets alone or with metformin 1000 mg qd, 5 days. The method, then: Subjects are given an end-of-study evaluation on the last day of period 2 (Day 20). For all treatment periods, subjects fasted for a minimum of 10 hours pre-dose to 4 hours post-dose. Subjects are considered to have completed the study when all safety and pharmacokinetic evaluations have been completed.
The pharmacokinetic profiles are illustrated in FIG. 5.

Data set [2] can be described thus: Water sorption/desorption isotherm (dynamic vapor sorption, DVS-1). The settings on record: 25° C., 85% RH.

As for `N#C[C@@H]1CCCN1C(=O)CNC12CC3CC(CC(O)(C3)C1)C2` [vildagliptin, (S)-1-[(3-hydroxy-1-adamantyl)amino]acetyl-2-cyano-pyrrolidine], the Tmax median in data set [1] is recorded as 1.00 h.
`N#C[C@@H]1CCCN1C(=O)CNC12CC3CC(CC(O)(C3)C1)C2` [Crystalline vildagliptin Form A, (S)-1-[(3-hydroxy-1-adamantyl)amino]acetyl-2-cyano-pyrrolidine]: in data set [2], the hygroscopicity result is “only very slightly hygroscopic” and the moisture gain is reported as 0.9%.
For `N#C[C@@H]1CCCN1C(=O)CNC12CC3CC(CC(O)(C3)C1)C2` [vildagliptin amorphous form, (S)-1-[(3-hydroxy-1-adamantyl)amino]acetyl-2-cyano-pyrrolidine], in that order: “hygroscopic” and 4.2%.
